Assay results taken from ChEMBL document CHEMBL2429789, “Discovery, Design, and Optimization of Isoxazole Azepine BET Inhibitors” (ACS Med Chem Lett, 2013).
Values belong to the compound of their own block, whether it stands above or below them. The source made the active and inactive calls. The rule behind the calls is not given here.

Tests used:
[1] = target: CYP3A4 (Homo sapiens, UniProt P08684); assay: Inhibition of CYP3A4 (unknown origin) at 10 uM; assay type: ADME
[2] = target: T1, Bromodomain-containing protein 4 (Homo sapiens, UniProt O60885); assay: Inhibition of His-FLAG-tagged BRD4 binding domain1 (unknown origin) binding to H4-TetraAc-biotin peptide after 20 mins by AlphaLISA
[3] = AUC in rat at 5 mg/kg, po; assay type: ADME, organism-based; parameters: dose 5 mg/kg, route oral; conditions: plasma
[4] = Oral bioavailability in rat at 5 mg/kg; assay type: ADME, organism-based; conditions: in vivo
[5] = Intrinsic clearance in rat liver microsomes; assay type: ADME, Microsome; conditions: read-out: CLH
[6] = target: T1, Bromodomain-containing protein 4; assay: Inhibition of BRD4 in human Raji cells assessed as reduction of MYC expression after 4 hrs; assay type: cell-based
[7] = Half life in rat at 1 mg/kg, iv; assay type: ADME, organism-based; parameters: dose 1 mg/kg, route intravenous; conditions: in vivo
[8] = Volume of distribution at steady state in rat at 1 mg/kg, iv; assay type: ADME, organism-based; parameters: dose 1 mg/kg, route intravenous; conditions: in vivo, read-out: Vdss
[9] = Plasma protein binding in human; assay type: ADME, cell-free; conditions: read-out: PPB (converted)
[10] = system: Rattus norvegicus; assay: […] clearance in rat at 1 mg/kg, iv; assay type: ADME, organism-based; parameters: dose 1 mg/kg, route intravenous; conditions: in vivo
[11] = system: Plasma; assay: Stability of the compound in rat plasma; assay type: ADME, cell-free
[12] = Intrinsic clearance in human liver microsomes; assay type: ADME, Microsome; conditions: read-out: CLH
[13] = Plasma protein binding in mouse; assay type: ADME, cell-free; conditions: read-out: PPB (converted)
[14] = system: Mus musculus; assay: Inhibition in MYC expression in tumor of NOD/SCID Harlan mouse xenografted with human Raji cells at 100 mg/kg, po after 4 hrs; assay type: functional
[15] = system: Mus musculus; assay: Inhibition in MYC expression in tumor of po dosed NOD/SCID Harlan mouse xenografted with human Raji cells; assay type: functional, organism-based
[16] = system: Canis familiaris; assay: Intrinsic clearance in dog at 1 mg/kg, iv; assay type: ADME, organism-based, Canis lupus familiaris; parameters: dose 1 mg/kg, route intravenous; conditions: in vivo
[17] = system: Mus musculus; assay: Inhibition of MYC expression in tumor of NOD/SCID Harlan mouse xenografted with human Raji cells at 100 mg/kg, po up to 8 hrs; assay type: functional, organism-based; parameters: dose 100 mg/kg
[18] = Intrinsic clearance in mouse liver microsomes; assay type: ADME, Microsome; conditions: read-out: CLH
[19] = Drug uptake in tumor of NOD/SCID Harlan mouse xenografted with human Raji cells at 100 mg/kg, po; assay type: ADME, organism-based, Neoplasm; parameters: dose 100 mg/kg, route oral; conditions: in vivo, read-out: Drug uptake
[20] = system: Mus musculus; assay: Inhibition of MYC expression in tumor of NOD/SCID Harlan mouse xenografted with human Raji cells at 100 mg/kg, po after 8 hrs relative to control; assay type: functional, organism-based; parameters: dose 100 mg/kg
[21] = Intrinsic clearance in dog liver microsomes; assay type: ADME, Canis lupus familiaris, Microsome; conditions: read-out: CLH
[22] = Volume of distribution at steady state in dog at 1 mg/kg, iv; assay type: ADME, organism-based, Canis lupus familiaris; parameters: dose 1 mg/kg, route intravenous; conditions: in vivo, read-out: Vdss
[23] = Half life in dog at 1 mg/kg, iv; assay type: ADME, organism-based, Canis lupus familiaris; parameters: dose 1 mg/kg, route intravenous; conditions: in vivo
[24] = system: Mus musculus; assay: Inhibition in MYC expression in tumor of NOD/SCID Harlan mouse xenografted with human Raji cells at 100 mg/kg, po; assay type: functional, organism-based; parameters: dose 100 mg/kg
[25] = Plasma protein binding in rat; assay type: ADME, cell-free; conditions: read-out: PPB (converted)
[26] = AUC in mouse at 5 mg/kg, po; assay type: ADME, organism-based; parameters: dose 5 mg/kg, route oral; conditions: plasma

CYP3A4, sequence (P08684 whole entry, the tested form may be a part): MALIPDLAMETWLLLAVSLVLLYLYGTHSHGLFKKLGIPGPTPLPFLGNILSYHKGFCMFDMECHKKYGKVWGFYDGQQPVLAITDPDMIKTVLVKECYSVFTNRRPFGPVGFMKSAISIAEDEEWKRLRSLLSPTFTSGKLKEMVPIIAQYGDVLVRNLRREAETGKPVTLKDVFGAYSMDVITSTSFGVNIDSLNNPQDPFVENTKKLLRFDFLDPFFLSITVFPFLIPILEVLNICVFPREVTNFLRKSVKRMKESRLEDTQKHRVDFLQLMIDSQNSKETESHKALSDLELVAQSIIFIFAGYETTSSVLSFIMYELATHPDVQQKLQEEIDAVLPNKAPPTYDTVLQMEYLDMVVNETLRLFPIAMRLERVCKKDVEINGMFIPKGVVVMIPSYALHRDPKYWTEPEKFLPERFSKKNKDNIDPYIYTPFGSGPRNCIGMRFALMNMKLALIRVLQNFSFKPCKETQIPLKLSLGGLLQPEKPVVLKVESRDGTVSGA

Compound: Cc1noc2c1-c1sc(C)c(C)c1C(c1ccc(C#N)cc1)=N[C@H]2CC(N)=O
- inhibition at 10 µM [1]: 0%
- IC50 [2]: 33 nM
- AUC [3]: 504 ng·h/mL
- bioavailability [4]: 44%
- microsomal CLint [5]: 8.9 µL/min/mg
- IC50 [6]: 91 nM
- half-life [7]: 0.393 h
- Vd [8]: 2.22 L/kg
- fraction unbound [9]: 0.041
- CL [10]: 72.5 mL/min/kg
- Stability [11]: Unstable
- microsomal CLint [12]: 4.6 µL/min/mg

Compound: Cc1noc2c1-c1sc(C)c(C)c1C(c1ccccc1Cl)=N[C@H]2CC(N)=O
- IC50 [2]: 250 nM
- IC50 [6]: 1900 nM

Compound: Cc1noc2c1-c1sc(C)c(C)c1C(Cc1ccccc1)=N[C@H]2CC(N)=O
- IC50 [2]: 5700 nM

Compound: Cc1noc2c1-c1sc(C)c(C)c1C(c1ccc(Cl)cn1)=N[C@H]2CC(N)=O
- IC50 [2]: 72 nM
- IC50 [6]: 240 nM

Compound: Cc1noc2c1-c1sc(C)c(C)c1C(C1CCOCC1)=N[C@H]2CC(N)=O
- IC50 [2]: 6200 nM

Compound: Cc1noc2c1-c1sc(C)c(C)c1C(N1CCOCC1)=N[C@H]2CC(N)=O
- IC50 [2]: 1100 nM

Compound: Cc1noc2c1-c1sc(C)c(C)c1C(c1cncnc1)=N[C@H]2CC(N)=O
- IC50 [2]: 2500 nM

Compound: Cc1cc(Cl)ccc1C1=N[C@@H](CC(N)=O)c2onc(C)c2-c2sc(C)c(C)c21
- IC50 [2]: 42 nM
- IC50 [6]: 160 nM

Compound: Cc1noc2c1-c1sc(C)c(C)c1C(c1ccc(C#N)cc1)=N[C@H]2[C@@H](C)C(N)=O
- IC50 [2]: 250 nM
- IC50 [6]: 710 nM

Compound: CCCC1=N[C@@H](CC(N)=O)c2onc(C)c2-c2sc(C)c(C)c21
- IC50 [2]: 300 nM
- IC50 [6]: 1500 nM

Compound: Cc1noc2c1-c1sc(C)c(C)c1C(c1ccc(Cl)cc1)=N[C@H]2Cc1nccs1
- IC50 [2]: 190 nM
- IC50 [6]: 2100 nM

Compound: Cc1noc2c1-c1sc(C)c(C)c1C(c1ccccc1)=N[C@H]2CC(N)=O
- inhibition at 10 µM [1]: 1%
- IC50 [2]: 29 nM
- microsomal CLint [5]: 160 µL/min/mg
- IC50 [6]: 180 nM
- fraction unbound [9]: 0.018
- Stability [11]: Unstable
- microsomal CLint [12]: 2.4 µL/min/mg

Compound: Cc1noc(N)c1-c1ccccc1
- IC50 [2]: 33000 nM

Compound: Cc1noc2c1-c1sc(C)c(C)c1C(c1ccc(N)nc1)=N[C@H]2CC(N)=O
- inhibition at 10 µM [1]: 20%
- IC50 [2]: 73 nM
- microsomal CLint [5]: 18 µL/min/mg
- IC50 [6]: 380 nM
- fraction unbound [9]: 0.006
- Stability [11]: Unstable
- microsomal CLint [12]: 5.4 µL/min/mg

Compound: Cc1noc2c1-c1sc(C)c(C)c1C(c1cccc(Cl)c1)=N[C@H]2CC(N)=O
- IC50 [2]: 74 nM
- IC50 [6]: 470 nM

The next lines start with results.

- IC50 [2]: 190 nM
- IC50 [6]: 2200 nM
Compound: CC(=O)NC[C@@H]1N=C(c2ccc(Cl)cc2)c2c(sc(C)c2C)-c2c(C)noc21

- IC50 [2]: 2100 nM
Compound: CCNC(=O)C[C@H]1N=C(c2ccc(Cl)cc2)c2c(sc(C)c2C)-c2c(C)noc21

- IC50 [2]: 86 nM
- IC50 [6]: 1900 nM
Compound: COC(=O)NC[C@@H]1N=C(c2ccc(Cl)cc2)c2c(sc(C)c2C)-c2c(C)noc21

- IC50 [2]: 290 nM
- IC50 [6]: 2100 nM
Compound: Cc1noc2c1-c1sc(C)c(C)c1C(c1ccc(Cl)cc1)=N[C@H]2CC(=O)OC(C)(C)C

- IC50 [2]: 36 nM
- IC50 [6]: 320 nM
Compound: CCNC(=O)C[C@@H]1N=C(c2ccc(Cl)cc2)c2c(sc(C)c2C)-c2c(C)noc21

- inhibition at 10 µM [1]: 20%
- fraction unbound [13]: 0.019
- CL [16]: 5.33 mL/min/kg
- IC50 [2]: 26 nM
- microsomal CLint [18]: 140 µL/min/mg
- concentration [19]: 5 µM
- AUC [3]: 605 ng·h/mL
- bioavailability [4]: 31%
- microsomal CLint [5]: 27 µL/min/mg
- IC50 [6]: 140 nM
- microsomal CLint [21]: 11 µL/min/mg
- Vd [22]: 1.27 L/kg
- half-life [23]: 3 h
- half-life [7]: 1.39 h
- Vd [8]: 2.45 L/kg
- fraction unbound [9]: 0.006
- CL [10]: 46.2 mL/min/kg
- fraction unbound [25]: 0.008
- microsomal CLint [12]: 5.5 µL/min/mg
- AUC [26]: 723 ng·h/mL
Compound: Cc1noc2c1-c1sc(C)c(C)c1C(c1ccc(Cl)cc1)=N[C@H]2CC(N)=O
- inhibition in vivo at 100 mg/kg [14]: 75%
- inhibition [15]: Dose-dependent effect
- inhibition [17]: Active
- inhibition [20]: inactive
- inhibition [24]: Active

- IC50 [2]: 200 nM
- IC50 [6]: 3600 nM
Compound: Cc1noc2c1-c1sc(C)c(C)c1C(c1ccc(Cl)cc1)=N[C@H]2Cc1ncc[nH]1
